According to US8557805B2, “Fused ring compound and use thereof” (Takeda Pharmaceutical Company Limited, priority 2008, dated 2013):

| melting point | SMILES |
| --- | --- |
| 176 to 177 °C | CS(=O)(=O)c1ccc(Oc2cc(OC3CCOCC3)c3[nH]c(C4=NCC(CC(N)=O)S4)cc3c2)cc1 (centres unmarked) [Example 5, 2-(2-{5-[4-(Methylsulfonyl)phenoxy]-7-(tetrahydro-2H-pyran-4-yloxy)-1H-indol-2-yl}-4,5-dihydro-1,3-thiazol-5-yl)acetamide] |
| 165 to 166 °C | CS(=O)(=O)c1ccc(Oc2cc(OC3CCOCC3)c3[nH]c(C4=NCC(CCO)S4)cc3c2)nc1 (centres unmarked) [Example 13, 2-{2-[5-{[5-(Methylsulfonyl)pyridin-2-yl]oxy}-7-(tetrahydro-2H-pyran-4-yloxy)-1H-indol-2-yl]-4,5-dihydro-1,3-thiazol-5-yl}ethanol] |
| 188 to 190 °C | CS(=O)(=O)c1ccc(Oc2cc(OC3CCOCC3)c3[nH]c(C4=NCC(CC(N)=O)S4)cc3c2)nc1 (centres unmarked) [Example 16, 2-{2-[5-{[5-(Methylsulfonyl)pyridin-2-yl]oxy}-7-(tetrahydro-2H-pyran-4-yloxy)-1H-indol-2-yl]-4,5-dihydro-1,3-thiazol-5-yl}acetamide] |
| 180 to 181 °C | CS(=O)(=O)c1ccc(Oc2cc(OC3CCOCC3)c3[nH]c(C4=NCC(CC(=O)N5CC(O)C5)S4)cc3c2)nc1 (centres unmarked) [Example 18, 1-({2-[5-{[5-(Methylsulfonyl)pyridin-2-yl]oxy}-7-(tetrahydro-2H-pyran-4-yloxy)-1H-indol-2-yl]-4,5-dihydro-1,3-thiazol-5-yl}acetyl)azetidin-3-ol] |
| 164 to 167 °C | CS(=O)(=O)Cc1ccc(Oc2cc(OC3CCOCC3)c3[nH]c(C4=NCC(CC(N)=O)S4)cc3c2)cn1 (centres unmarked) [Example 26, 2-{2-[5-({6-[(Methylsulfonyl)methyl]pyridin-3-yl}oxy)-7-(tetrahydro-2H-pyran-4-yloxy)-1H-indol-2-yl]-4,5-dihydro-1,3-thiazol-5-yl}acetamide] |
| 157 to 158 °C | CNC(=O)CC1CN=C(c2cc3cc(Oc4ccc(CS(C)(=O)=O)nc4)cc(OC4CCOCC4)c3[nH]2)S1 (centres unmarked) [Example 27, N-Methyl-2-{2-[5-({6-[(methylsulfonyl)methyl]pyridin-3-yl}oxy)-7-(tetrahydro-2H-pyran-4-yloxy)-1H-indol-2-yl]-4,5-dihydro-1,3-thiazol-5-yl}acetamide] |
| 136 to 138 °C | CS(=O)(=O)c1ccc(Oc2cc(OC3CCOCC3)c3[nH]c(C4=NCC(CC(N)=O)S4)cc3c2)cn1 (centres unmarked) [Example 31, 2-{2-[5-{[6-(Methylsulfonyl)pyridin-3-yl]oxy}-7-(tetrahydro-2H-pyran-4-yloxy)-1H-indol-2-yl]-4,5-dihydro-1,3-thiazol-5-yl}acetamide] |
| 143 to 144 °C | CNC(=O)CC1CN=C(c2cc3cc(Oc4ccc(S(C)(=O)=O)nc4)cc(OC4CCOCC4)c3[nH]2)S1 (centres unmarked) [Example 34, N-methyl-2-{2-[5-{[6-(Methylsulfonyl)pyridin-3-yl]oxy}-7-(tetrahydro-2H-pyran-4-yloxy)-1H-indol-2-yl]-4,5-dihydro-1,3-thiazol-5-yl}acetamide] |
| 195 to 196 °C | CC(C)(O)CNC(=O)CC1CN=C(c2cc3cc(Oc4ccc(S(C)(=O)=O)nc4)cc(OC4CCOCC4)c3[nH]2)S1 (centres unmarked) [Example 39, N-(2-Hydroxy-2-methylpropyl)-2-{2-[5-{[6-(methylsulfonyl)pyridin-3-yl]oxy}-7-(tetrahydro-2H-pyran-4-yloxy)-1H-indol-2-yl]-4,5-dihydro-1,3-thiazol-5-yl}acetamide] |
| 189 to 190 °C | CC1(CNC(=O)CC2CN=C(c3cc4cc(Oc5ccc(S(C)(=O)=O)nc5)cc(OC5CCOCC5)c4[nH]3)S2)COC1 (centres unmarked) [Example 40, N-[(3-Methyloxetan-3-yl)methyl]-2-{2-[5-{[6-(methylsulfonyl)pyridin-3-yl]oxy}-7-(tetrahydro-2H-pyran-4-yloxy)-1H-indol-2-yl]-4,5-dihydro-1,3-thiazol-5-yl}acetamide] |
| 157 to 158 °C | CS(=O)(=O)c1ccc(Oc2cc(OC3CCOCC3)c3[nH]c(C4=NCC(CC(=O)NCCO)S4)cc3c2)cn1 (centres unmarked) [Example 44, N-(2-Hydroxyethyl)-2-{2-[5-{[6-(methylsulfonyl)pyridin-3-yl]oxy}-7-(tetrahydro-2H-pyran-4-yloxy)-1H-indol-2-yl]-4,5-dihydro-1,3-thiazol-5-yl}acetamide] |
| 205 to 208 °C | CS(=O)(=O)c1ccc(Oc2ccc3[nH]c(C4=NCC(CC(=O)O)S4)cc3c2)cn1 (centres unmarked) [Example 52, [2-(5-{[6-(Methylsulfonyl)pyridin-3-yl]oxy}-1H-indol-2-yl)-4,5-dihydro-1,3-thiazol-5-yl]acetic acid] |
| 230 to 232 °C | CCc1cc(Oc2ccc(S(C)(=O)=O)nc2)cc2cc(C3=NCC(CC(=O)O)S3)[nH]c12 (centres unmarked) [Example 60, [2-(7-Ethyl-5-{[6-(methylsulfonyl)pyridin-3-yl]oxy}-1H-indol-2-yl)-4,5-dihydro-1,3-thiazol-5-yl]acetic acid] |
| 189 to 190 °C | CCc1cc(Oc2ccc(S(C)(=O)=O)nc2)cc2cc(C3=NCC(CC(=O)NC)S3)[nH]c12 (centres unmarked) [Example 62, 2-[2-(7-Ethyl-5-{[6-(methylsulfonyl)pyridin-3-yl]oxy}-1H-indol-2-yl)-4,5-dihydro-1,3-thiazol-5-yl]-N-methylacetamide] |
| 227 to 229 °C | CCNC(=O)CC1CN=C(c2cc3cc(Oc4ccc(S(C)(=O)=O)nc4)cc(CC)c3[nH]2)S1 (centres unmarked) [Example 63, N-Ethyl-2-[2-(7-ethyl-5-{[6-(methylsulfonyl)pyridin-3-yl]oxy}-1H-indol-2-yl)-4,5-dihydro-1,3-thiazol-5-yl]acetamide] |
| 190 to 191 °C | CN(C)C(=O)CC1CN=C(c2cc3cc(Oc4ccc(S(C)(=O)=O)nc4)ccc3[nH]2)S1 (centres unmarked) [Example 64, N,N-Dimethyl-2-[2-(5-{[6-(methylsulfonyl)pyridin-3-yl]oxy}-1H-indol-2-yl)-4,5-dihydro-1,3-thiazol-5-yl]acetamide] |
| 174 to 175 °C | COCCNC(=O)CC1CN=C(c2cc3cc(Oc4ccc(S(C)(=O)=O)nc4)ccc3[nH]2)S1 (centres unmarked) [Example 66, N-(2-Methoxyethyl)-2-[2-(5-{[6-(methylsulfonyl)pyridin-3-yl]oxy}-1H-indol-2-yl)-4,5-dihydro-1,3-thiazol-5-yl]acetamide] |
| 168 to 169 °C | CS(=O)(=O)c1ccc(Oc2ccc3[nH]c(C4=NCC(CC(=O)N5CCOCC5)S4)cc3c2)cn1 (centres unmarked) [Example 68, 5-{[6-(Methylsulfonyl)pyridin-3-yl]oxy}-2-[5-(2-morpholin-4-yl-2-oxoethyl)-4,5-dihydro-1,3-thiazol-2-yl]-1H-indole] |
| 248 to 249 °C | Cc1cc(Oc2ccc(S(C)(=O)=O)nc2)cc2cc(C3=NCC(CC(=O)O)S3)[nH]c12 (centres unmarked) [Example 71, [2-(7-Methyl-5-{[6-(methylsulfonyl)pyridin-3-yl]oxy}-1H-indol-2-yl)-4,5-dihydro-1,3-thiazol-5-yl]acetic acid] |
| 184 to 186 °C | Cc1cc(Oc2ccc(S(C)(=O)=O)nc2)cc2cc(C3=NCC(CC(=O)NCC(C)(C)O)S3)[nH]c12 (centres unmarked) [Example 75, N-(2-Hydroxy-2-methylpropyl)-2-[2-(7-methyl-5-{[6-(methylsulfonyl)pyridin-3-yl]oxy}-1H-indol-2-yl)-4,5-dihydro-1,3-thiazol-5-yl]acetamide] |
